US20070010568A1, “Substituted azabicyclo hexane derivatives as muscarinic receptor antagonists” (priority 2003, published 2007)

Tests used:
[1] = molecular target: T1, M3 muscarinic receptor (Rattus norvegicus, UniProt P08483); assay: Radioligand binding assay, [3H]-N-methylscopolamine, rat submandibular gland membranes; conditions: [3H]NMS, 24-25° C., read-out: Receptor Binding Assay M3 (pKi) (converted)
T1 construct: Submandibular glands and heart were isolated and placed in ice cold homogenising buffer; from tissue; host or cells: rat submandibular gland membrane homogenate
T1 sequence (P08483 whole entry): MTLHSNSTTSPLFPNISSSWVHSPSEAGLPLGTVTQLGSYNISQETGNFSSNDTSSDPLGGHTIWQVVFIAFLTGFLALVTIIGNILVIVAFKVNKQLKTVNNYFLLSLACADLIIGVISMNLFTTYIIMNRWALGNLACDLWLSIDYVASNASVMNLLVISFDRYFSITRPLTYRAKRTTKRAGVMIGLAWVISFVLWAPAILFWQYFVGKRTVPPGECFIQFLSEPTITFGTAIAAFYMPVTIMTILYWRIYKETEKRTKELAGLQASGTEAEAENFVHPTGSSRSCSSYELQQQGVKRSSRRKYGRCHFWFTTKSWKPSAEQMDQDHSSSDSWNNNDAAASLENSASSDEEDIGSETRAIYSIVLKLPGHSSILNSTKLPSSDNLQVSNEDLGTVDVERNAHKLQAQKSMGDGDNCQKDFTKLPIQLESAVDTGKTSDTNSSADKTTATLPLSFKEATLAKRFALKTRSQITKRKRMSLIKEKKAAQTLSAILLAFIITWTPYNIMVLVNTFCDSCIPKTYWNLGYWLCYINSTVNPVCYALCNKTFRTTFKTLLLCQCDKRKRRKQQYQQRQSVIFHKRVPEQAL
Experimental: (§1) The affinity of test compounds for M2 and M3 muscarinic receptor subtypes was determined by [^3H]-N-methylscopolamine binding studies using rat heart and submandibular gland respectively as described by Moriya et al., (Life Sci., 1999; 64 (25): 2351-2358).
(§2) Membrane preparation: Submandibular glands and heart were isolated and placed in ice cold homogenising buffer (EPES 20 mM, 10 mM EDTA, pH 7.4) immediately after sacrifice. The tissues were homogenised in 10 volumes of homogenising buffer and the homogenate was filtered through two layers of wet gauze and filtrate was centrifliged at 500 g for 10 min. The supernatant was subsequently centrifuged at 40,000 g for 20 min. The pellet thus obtained was resuspended in same volume of assay buffer (HEPES 20 mM, EDTA 5 mM, pH 7.4) and were stored at −70° C. until the time of assay.
(§3) Ligand binding assay: The compounds were dissolved and diluted in DMSO. The membrane homogenates (150-250 μg protein) were incubated in 250 μl of assay buffer (HEPES 20 mM, pH 7.4) at 24-25° C. for 3 h. Non-specific binding was determined in the presence of 1 μM atropine. The incubation was terminated by vaccum filtration over GF/B fiber filters(Wallac). The filters were then washed with ice cold 50 mM Tris HCl buffer (pH 7.4). The filter mats were dried and bound radioactivity retained on filters was counted. The IC50 & Kd were estimated by using the non-linear curve fitting program using G Pad Prism software. The value of inhibition constant Ki was calculated from competitive binding studies by using Cheng & Prusoff equation (Biochem Pharmacol, 1973,22: 3099-3108), Ki=IC50/(1+L/Kd), where L is the concentration of [^3H]NMS used in the particular experiment. pKi=−log Ki Functional Experiments Using Isolated Rat Bladder: Methodology: […]

[2] = molecular target: T2, M2 muscarinic receptor (Rattus norvegicus, UniProt P10980); assay: Radioligand binding assay, [3H]-N-methylscopolamine, rat heart membranes; conditions: [3H]NMS, 24-25° C., read-out: Receptor Binding Assay M2 (pKi) (converted)
T2 construct: Submandibular glands and heart were isolated and placed in ice cold homogenising buffer; from tissue; host or cells: rat heart membrane homogenate
T2 sequence (P10980 1-466): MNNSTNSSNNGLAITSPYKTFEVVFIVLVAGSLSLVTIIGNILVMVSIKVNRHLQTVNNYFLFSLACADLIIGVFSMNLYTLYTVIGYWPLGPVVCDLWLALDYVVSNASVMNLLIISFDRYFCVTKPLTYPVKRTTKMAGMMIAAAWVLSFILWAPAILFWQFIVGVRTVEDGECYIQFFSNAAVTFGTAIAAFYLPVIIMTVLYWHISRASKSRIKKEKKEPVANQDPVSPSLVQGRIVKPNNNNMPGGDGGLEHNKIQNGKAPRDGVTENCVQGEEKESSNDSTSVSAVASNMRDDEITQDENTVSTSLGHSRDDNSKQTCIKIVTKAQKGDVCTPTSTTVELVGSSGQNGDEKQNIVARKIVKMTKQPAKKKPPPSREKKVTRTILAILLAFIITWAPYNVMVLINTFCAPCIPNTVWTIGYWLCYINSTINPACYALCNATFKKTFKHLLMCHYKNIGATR
Experimental: as §1, §2, §3

Row | Structure (SMILES) | Ki [1] | Ki [2]
1 | O=C(CNC(=O)CC(c1ccccc1)(c1ccccc1)c1ccccc1)NCCC(=O)N[C@H]1[C@@H]2CN(Cc3ccccc3)C[C@@H]21 [Compound No. 6, (1α, 5α, 6α)-N-[(3-oxopropyl]amino-2-oxoethyl-3-benzyl-3-azabicyclo [3.1.0]-hexyl-6-amino-yl]-3,3,3-triphenyl propionamide] | > 1 µM | > 1 µM
2 | O=C(CC(c1ccccc1)(c1ccccc1)c1ccccc1)N[C@H]1[C@@H]2CN(CC(=O)c3ccc4c(c3)CCO4)C[C@@H]21 [Compound No. 4, (1α, 5α, 6α)-N-[3-{2-oxo-2-(2,3-dihydrobenzofuran-5-yl)ethyl}-3-azabicyclo[3.1.0]-hexyl-6-amino-yl]-3,3,3-triphenyl propionamide] | > 1 µM | > 1 µM
3 | CCCOC(C(=O)N[C@H]1[C@@H]2CNC[C@@H]21)(c1ccc(F)cc1)c1ccc(F)cc1 [Compound No. 8, (1α, 5α, 6α)-N-[3-azabicyclo[3.1.0]-hexyl-6-amino-yl]-2-propyloxy-2,2-bis-4-fluorophenyl acetamide] | > 1 µM | > 1 µM
4 | CC(C)=CCCN1C[C@@H]2[C@H](C1)[C@H]2NC(=O)CC(c1ccccc1)(c1ccccc1)c1ccccc1 [Compound No. 2, (1α, 5α, 6α)-N-[3-(4-methyl-3-pentenyl)-3-azabicyclo[3.1.0]-hexyl-6-amino-yl]-3,3,3-triphenyl propionamide] | > 1 µM | > 1 µM
5 | O=C(CCNC(=O)CNC(=O)CC(c1ccccc1)(c1ccccc1)c1ccccc1)NC[C@@H]1[C@H]2CN(Cc3ccccc3)C[C@@H]12 [Compound No. 5, (1α, 5α, 6α)-N-[(3-oxopropyl)amino-2-oxoethyl-3-benzyl-3-azabicyclo [3.1.0]-hexyl-6-aminomethyl]-3,3,3-triphenyl propionamide] | > 1 µM | > 1 µM
6 | O=C(CC(c1ccccc1)(c1ccccc1)c1ccccc1)N[C@H]1[C@@H]2CN(Cc3ccccc3)C[C@@H]21 [Compound No. 1, (1α, 5α, 6α)-N-[3-benzyl-3-azabicyclo[3.1.0]-hexyl-6-amino-yl]-3,3,3-triphenylpropionaniide] | > 1 µM | > 1 µM
7 | O=C(N[C@H]1[C@@H]2CNC[C@@H]21)C(O)(c1ccc(F)cc1)c1ccc(F)cc1 [Compound No. 7, (1α, 5α, 6α)-N-[3-azabicylo[3.1.0]-hexyl-6-amino-yl]-2-hydroxy-2,2-bis-4-fluorophenyl acetamide] | > 1 µM | > 1 µM
8 | O=C(CC(c1ccccc1)(c1ccccc1)c1ccccc1)N[C@H]1[C@@H]2CN(CCc3ccc4c(c3)OCO4)C[C@@H]21 [Compound No. 3, (1α, 5α, 6α)-N-[3-{2-(3,4-methylenedioxy-phenyl)ethyl}-3-azabicyclo [3.1.0]-hexyl-6-amino-yl]-3,3,3-triphenylpropionamide] | > 1 µM | > 1 µM
